We go through five molecules from patent publication US8361965B2, “Recombinant chimeric protein of neutrophil inhibitory factor and hirugen, and pharmaceutical composition thereof” (Lunan Pharmaceutical Group Corporation, priority 2008, dated 2013).

Assay [1] concerns blood coagulation system. Kind of assay: effects on blood coagulation system of New Zealand rabbits in vivo (APTT, PT, TT). More on the design: species or system New Zealand rabbit; PT: unit not given beside the values; APTT / TT: unit not given here. The protocol: Medicaments were administrated via intravenous injection from marginal ear vein, and 1.8 ml blood was harvested from marginal ear veins at the time of before administration (0 min), and 10 min, 30 min, 60 min, 120 min and 240 min after administration, respectively (the time for injecting is 2 min). 3.2% sodium citrate (9:1) was added for anticoagulation and then mixed and centrifuged at 3000 rpm/min for 3 min. The plasma was send to Department of Clinical Laboratory, Southwest Hospital for determining blood coagulation indexes (APTT, TT and PT) with a full automatic coagulation analyzer and the difference before and after administration was obtained by comparison.

The test system of assay [2] is blood coagulation system. Kind of assay: effects on blood coagulation system of New Zealand rabbits in vitro (APTT, PT, TT). Format: biochemical, New Zealand rabbit. More on the design: PT: unit not given beside the values; APTT / TT: unit not given here. The protocol: Medicaments were diluted to the following concentrations for use: TNHH: 3.0 mg/ml; 1.0 mg/ml; 333 μg/ml; bivalrudin: 600 μg/ml; 200 μg/ml; 67 μg/ml; Hirudin: 660 μg/ml; 220 μg/ml; 73 μg/ml.
The blood was sampled from six New Zealand rabbits (10×1.8 ml for each one) from marginal ear vein and added into 10 anticoagulation tubes, respectively. 3.2% sodium citrate (9:1) was added for anticoagulation.
20 μl anticoagulated blood was taken from each tube, followed by the addition of 20 μl above diluted medicaments for each tube. 20 μl physiological saline was added into the control tube. Samples were mixed thoroughly and centrifuged at 3000 rpm/min for 3 min, and plasma was send to Department of Clinical Laboratory, Southwest Hospital for determining blood coagulation indexes (APTT, TT and PT) with a full automatic coagulation analyzer and the difference before and after administration was obtained by comparison.

A further assay relates to leukocyte adhesion. Put plainly: anti-leukocyte adhesion activity, in vitro comparative analysis. Format: cell-based. Conditions: in vitro.
The subject of the next assay is rabbit whole blood. Kind of assay: in vitro whole blood anticoagulation assay. As to conditions: 0.2 ml heparin sodium 1 mg/ml + 1.0 ml rabbit blood; room temperature 15 min. More on the design: species or system white rabbit. The protocol:
TNHH was diluted to 4 mg/ml, 2 mg/ml, 1 mg/ml, 0.5 mg/ml respectively with phosphate buffer solution (10 mmol/L PB, 0.15 mol/L NaCl, pH7.4). Heparin sodium was prepared to 1 mg/ml with the same buffer solution.
Venous blood was taken from marginal ear vein of the rabbit, and rapidly added into 0#-5# tubes. 0.2 ml of the diluted TNHH samples with different concentrations was added into the 1#-4# tubes, respectively. 0.2 ml phosphate buffer solution was added into the 0# tube, which was used as a negative control. 0.2 ml heparin sodium (1 mg/ml) was added into the 5# tube, which was used as a positive control. The reagents were mixed rapidly and stored at room temperature for 15 min for observing the results.

For assay [3], the system named is platelet aggregation induced by human thrombin. Kind of assay: antiplatelet aggregation assay (rabbits dosed i.v., thrombin-induced aggregation of PRP). Format: in vivo, Japanese Giant Ear White Rabbits. The protocol: Platelet aggregation rate was determined by puncture of the central artery of the ear before administration, and then rabbits were randomly divided into 5 groups (4 in each group) based on the platelet aggregation rate and body weight: (1) negative control group (5.12 mg mannitol/kg), (2) high dose TNHH group (4.0 mg/kg), (3) middle dose TNHH group (2.0 mg/kg), (4) low dose TNHH group (1.0 mg/kg), and (5) positive control group (0.1 mg recombinant hirudin/kg). The rabbits in each group were administered at the dose respectively via intravenous injection from the marginal ear vein. Blood samples were collected at the time of 15 min after administration (timed by stopwatch) by puncture of the central artery of the ear to determine the platelet aggregation rate. The method of platelet aggregation rate determination was described as follows: the blood samples were collected by puncture of the central artery of the ear using silicified syringe. 3.8% anticoagulant sodium citrate solution (blood: anticoagulant=9:1) was used. The sample was centrifuged at 200×g for 8 min, and the supernatant obtained was platelet-rich plasma (PRP); then the remaining part was centrifuged again at 2200×g for 10 min, and the supernatant obtained was platelet-poor plasma (PPP). The platelet in PRP was counted as approximate 4.0×10^5/mm^3. According to Born's turbidimetry, a turbidimetric tube with 200 μl PRP and a small magnetic bar was placed in a platelet aggregation instrument and incubated at 37 for 1 min. After calibrating with PPP, the platelet was induced to aggregate by adding inductive human thrombin (0.76 IU/ml) under stirring. The effect of medicaments on the aggregation of platelet was analyzed using the aggregation curve and the maximum aggregation rate obtained from the instrument. The maximum aggregation rate was calculated according to the formula below: […]

[4] abbreviates: Bivalrudin 1.50 mg/kg i.v., 0 min (before administration).
Setting [5] is: Bivalrudin 1.50 mg/kg i.v., 10 min.
Where [6] appears, read: Bivalrudin 1.50 mg/kg i.v., 30 min.
Setting [7] is: Bivalrudin 1.50 mg/kg i.v., 60 min.
The mark [8] stands for this setting: Bivalrudin 1.50 mg/kg i.v., 120 min.
Where [9] appears, read: Bivalrudin 1.50 mg/kg i.v., 240 min.
The mark [10] stands for this setting: bivalrudin 0.67 μg/ml in rabbit blood.
Setting [11] is: bivalrudin 2.00 μg/ml in rabbit blood.
Where [12] appears, read: bivalrudin 6.00 μg/ml in rabbit blood.
[13] abbreviates: Hirudin 0.50 mg/kg i.v., 0 min (before administration).
Setting [14] is: Hirudin 0.50 mg/kg i.v., 10 min.
[15] abbreviates: Hirudin 0.50 mg/kg i.v., 30 min.
Where [16] appears, read: Hirudin 0.50 mg/kg i.v., 60 min.
The mark [17] stands for this setting: Hirudin 0.50 mg/kg i.v., 120 min.
Setting [18] is: Hirudin 0.50 mg/kg i.v., 240 min.
Where [19] appears, read: hirudin 0.73 μg/ml in rabbit blood.
Setting [20] is: hirudin 2.20 μg/ml in rabbit blood.
Setting [21] is: hirudin 6.60 μg/ml in rabbit blood.

Take “Bivalrudin: lyophilized powder for injection, manufactured by Chengdu Jiexun Biotechnical Co., Ltd. [reference compound]”: the APTT turned out to be 40.7 ± 5.77 with blood coagulation system [1] (setting [4]); 45.75 ± 7.20 in the assay on blood coagulation system [1] (setting [5]); 39.33 ± 6.62 in the assay with blood coagulation system [1] (setting [6]); 38.03 ± 5.55 with blood coagulation system [1] (setting [7]); 32.68 ± 4.77 with blood coagulation system [1] (setting [8]); 34.57 ± 5.56 in the assay with blood coagulation system [1] (setting [9]). For the same molecule, the APTT in the assay with blood coagulation system [2] (setting [10]) is given as 35.12 ± 8.04; with blood coagulation system [2] (setting [11]), 40.75 ± 8.71; in the assay on blood coagulation system [2] (setting [12]) it was 55.00 ± 12.4. For the same molecule, the PT in the assay with blood coagulation system [1] (setting [4]) is on record as 6.87 ± 0.21; with blood coagulation system [1] (setting [5]), 8.27 ± 0.67; in the assay with blood coagulation system [1] (setting [6]), 7.40 ± 0.27; in the assay on blood coagulation system [1] (setting [7]) it was 7.10 ± 0.15; with blood coagulation system [1] (setting [8]), 7.02 ± 0.12; in the assay with blood coagulation system [1] (setting [9]), 6.90 ± 0.18. In addition, the PT in the assay with blood coagulation system [2] (setting [10]) was determined as 7.83 ± 0.39; in the assay with blood coagulation system [2] (setting [11]), 8.75 ± 0.52; with blood coagulation system [2] (setting [12]), 11.08 ± 1.20. Besides, the TT in the assay with blood coagulation system [1] (setting [4]) is reported as 15.28 ± 1.60; in the assay with blood coagulation system [1] (setting [5]), 71.18 ± 23.37; in the assay on blood coagulation system [1] (setting [6]), 36.12 ± 14.00; in the assay with blood coagulation system [1] (setting [7]), 26.68 ± 7.30; in the assay on blood coagulation system [1] (setting [8]) it was 15.40 ± 2.16; in the assay with blood coagulation system [1] (setting [9]) it was 15.50 ± 2.36. Besides, the TT in the assay with blood coagulation system [2] (setting [10]) came out at 43.22 ± 8.13; in the assay with blood coagulation system [2] (setting [11]), 53.67 ± 9.03; with blood coagulation system [2] (setting [12]), 85.38 ± 23.07.
As for “Hirogen: artificial dodecapeptide based on the C-terminal 53rd-64th amino acids of hirudin (NGDFEEIPEEYL) (not fully specified) [reference compound]”, in the assay with leukocyte adhesion, the anti-leukocyte adhesion activity entry is recorded as “none”.
heparin sodium [reference compound]: in the assay with rabbit whole blood, the “Test results (blood coagulation)” value was “not coagulated and Non-”.
As to hirudin [reference compound], the APTT in the assay with blood coagulation system [1] (setting [13]) is given as 38.02 ± 6.54; with blood coagulation system [1] (setting [14]) it was 39.97 ± 5.69; in the assay on blood coagulation system [1] (setting [15]), 37.72 ± 5.55; with blood coagulation system [1] (setting [16]), 35.02 ± 7.59; in the assay with blood coagulation system [1] (setting [17]), 32.05 ± 5.69; in the assay on blood coagulation system [1] (setting [18]), 32.07 ± 5.97. Further, the APTT with blood coagulation system [2] (setting [19]) stood at 37.47 ± 6.15; in the assay with blood coagulation system [2] (setting [20]) it was 52.85 ± 15.88; in the assay on blood coagulation system [2] (setting [21]), 58.43 ± 14.36. Moreover, the PT in the assay on blood coagulation system [1] (setting [13]) came out at 6.80 ± 0.28; in the assay on blood coagulation system [1] (setting [14]), 7.27 ± 0.22; in the assay with blood coagulation system [1] (setting [15]), 7.01 ± 0.31; in the assay on blood coagulation system [1] (setting [16]), 6.95 ± 0.34; in the assay on blood coagulation system [1] (setting [17]) it was 6.97 ± 0.27; with blood coagulation system [1] (setting [18]) it was 7.08 ± 0.26. The values for the PT in the assay on blood coagulation system [2] (setting [19]), with blood coagulation system [2] (setting [20]) and in the assay with blood coagulation system [2] (setting [21]) were 7.33 ± 0.33, 7.87 ± 0.37 and 9.37 ± 1.30, respectively. Moreover, the TT with blood coagulation system [1] (setting [13]) is on record as 16.40 ± 1.73; in the assay on blood coagulation system [1] (setting [14]), 112.70; in the assay with blood coagulation system [1] (setting [15]), 84.93 ± 49.24; in the assay with blood coagulation system [1] (setting [16]) it was 58.17 ± 33.19; in the assay on blood coagulation system [1] (setting [17]), 30.42 ± 17.09; with blood coagulation system [1] (setting [18]), 16.30 ± 2.32. Also, the TT in the assay with blood coagulation system [2] (setting [19]) came to 50.40 ± 8.19; in the assay on blood coagulation system [2] (setting [20]) it was 102.77 ± 21.90; with blood coagulation system [2] (setting [21]), 116.40 ± 8.82. Further, the “aggregation ratio, Before administration” value in assay [3] (hirudin 0.1 mg/kg group) came out at 58.44 ± 4.42%. Moreover, in assay [3] (hirudin 0.1 mg/kg i.v.), the “aggregation ratio, 15 min after administration” value turned out to be 4.34 ± 6.88%. Also, the “aggregation ratio, difference” value in assay [3] (hirudin 0.1 mg/kg i.v., before vs 15 min after) came to 54.09 ± 8.69 %.

B1: TNHH-G15/n3: recombinant TNHH with linker 1 (Gly)15 and linker 2 (GSGG)3: NIF-(Gly)15-FPRP-(GSGG)3-hirugen (protein)
chain: MNEHNLRCPQNGTEMPGFNDSIRLQFLAMHNGYRSKLALGHISITEESESDDDDDFGFLPDFAPRASKMRYLEYDCEAEKSAYMSARNCSDSSSPPEGYDENKYIFENSNNISEAALKAMISWAKEAFNLNKTKEGEGVLYRSNHDISNFANLAWDAREKFGCAVVNCPLGEIDDETNHDGETYATTIHVVCHYPKINKTEGQPIYKVGTPCDDCSEYTKKADNTTSADPVCIPDDGVCFIGSKADYDSKEFYRFRELGGGGGGGGGGGGGGGFPRPGSGGGSGGGSGGNGDFEEIPEEYL
Turning to B1, the anti-leukocyte adhesion activity in the assay with leukocyte adhesion was found to be 740 Unit/mg.
